Tests used:
[1] = target: T1, HCV polymerase (NS5B) type 1a (Hepatitis C virus genotype 1a, UniProt P26664); test: Assay of enzyme (HCV polymerase) inhibitory activity, type 1a enzyme; type: biochemical, HCV type 1a (cloned from the blood of patients); conditions: HCV polymerase inhibitory activity (IC50), 1a, type 1a enzyme 1.5 μg/ml, 25° C., 60 min
T1 construct: made in house; host or cells: Escherichia coli (by the 'similar method' of the 1b enzyme)
Outline: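 Patient-derived type 1a NS5B (C-terminal 47-aa deletion, His-tagged, E. coli-expressed) at 1.5 μg/ml was reacted with 5 μg/ml 3′UTR-containing substrate RNA, 50 μM ATP/GTP/CTP, 2 μM UTP plus [3H]UTP, pH 7.5, 25° C for 60 min. TCA-precipitated RNA radioactivity was counted; IC50 from ± compound.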

[2] = target: T2, HCV polymerase (NS5B) type 1b (Hepatitis C virus genotype 1b, UniProt P26663); test: Assay of enzyme (HCV polymerase) inhibitory activity, type 1b enzyme; type: biochemical, HCV BK strain (type 1b); conditions: HCV polymerase inhibitory activity (IC50), 1b, type 1b enzyme 0.5 μg/ml, 25° C., 60 min
T2 construct: a region encoding NS5B (J Virol 1991 March, 65(3), 1105-13, 544 amino acids after deletion of 47 amino acids on the C-terminal); 6xHis (C); made in house; host or cells: Escherichia coli
Outline: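 NS5B from HCV BK strain (type 1b), C-terminal 47 aa deleted, C-terminal His6-tagged, E. coli-expressed, 0.5 μg/ml, with ~450 nt substrate RNA carrying the 3′ UTR (polyU, 3′X) at 5 μg/ml. Incubation 60 min at 25 °C with 50 μM ATP/GTP/CTP, 2 μM UTP plus [3H]UTP, pH 7.5 Tris.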

SMILES	IC50 [1] [nM]	IC50 [2] [nM]
CCCc1ccc(CNC(=O)[C@H]2CN(C(=O)Cn3ccnc3)CCN2S(=O)(=O)c2ccc(OC(F)(F)F)cc2)cc1 [Example 462, (R)-4-(2-imidazol-1-yl-acetyl)-1-(4-trifluoromethoxy-benzenesulfonyl)-piperazine-2-carboxylic acid 4-propyl-benzylamide]	< 100	< 100
CCCc1ccc(CNC(=O)[C@H]2CN(C(=O)N(C)c3ccncc3)CCN2S(=O)(=O)c2ccc(OC(F)(F)F)cc2)cc1 [Example 463, (R)-4-(4-trifluoromethoxy-benzenesulfonyl)-piperazine-1,3-dicarboxylic acid 1-(methyl-pyridin-4-yl-amide) 3-(4-propyl-benzylamide)]	> 1000	> 1000
CCC(F)(F)c1ccc(CNC(=O)[C@H]2CN(C(=O)Cn3cnnn3)CCN2S(=O)(=O)c2ccc(OC(F)(F)F)cc2)cc1 [Example 464, (R)-4-(2-tetrazol-1-yl-acetyl)-1-(4-trifluoromethoxy-benzenesulfonyl)-piperazine-2-carboxylic acid 4-(1,1-difluoro-propyl)-benzylamide]	< 100	< 100
CCCc1ccc(CNC(=O)[C@H]2CN(C(=O)Cn3nnc(CC(=O)O)n3)CCN2S(=O)(=O)c2ccc(OC(F)(F)F)cc2)cc1 [Example 465, (2-{2-oxo-2-[(R)-3-(4-propyl-benzylcarbamoyl)-4-(4-trifluoromethoxy-benzenesulfonyl)-piperazin-1-yl]-ethyl}-2H-tetrazol-5-yl)-acetic acid]	< 100	< 100
CCOC(=O)Cc1nnn(CC(=O)N2CCN(S(=O)(=O)c3ccc(OC(F)(F)F)cc3)[C@@H](C(=O)NCc3ccc(C(F)(F)CC)cc3)C2)n1 [Example 466, (2-{2-[(R)-3-[4-(1,1-difluoro-propyl)-benzylcarbamoyl]-4-(4-trifluoromethoxy-benzenesulfonyl)-piperazin-1-yl]-2-oxo-ethyl}-2H-tetrazol-5-yl)-acetic acid ethyl ester]	< 100	< 100
CCC(F)(F)c1ccc(CNC(=O)[C@H]2CN(C(=O)Cn3nnnc3C)CCN2S(=O)(=O)c2ccc(OC(F)(F)F)cc2)cc1 [Example 467, (R)-4-[2-(5-methyl-tetrazol-1-yl)-acetyl]-1-(4-trifluoromethoxy-benzenesulfonyl)-piperazine-2-carboxylic acid 4-(1,1-difluoro-propyl)-benzylamide]	< 100	100 to 1000
CCC(F)(F)c1ccc(CNC(=O)[C@H]2CN(C(=O)Cn3nnc(C)n3)CCN2S(=O)(=O)c2ccc(OC(F)(F)F)cc2)cc1 [Example 468, (R)-4-[2-(5-methyl-tetrazol-2-yl)-acetyl]-1-(4-trifluoromethoxy-benzenesulfonyl)-piperazine-2-carboxylic acid 4-(1,1-difluoro-propyl)-benzylamide]	< 100	< 100
CC(=O)N1CCN(S(=O)(=O)c2ccc(Br)c(F)c2)[C@@H](C(=O)NCc2ccc(C(C)C)cc2)C1 [Example 469, (R)-4-acetyl-1-(4-bromo-3-fluoro-benzenesulfonyl)-piperazine-2-carboxylic acid 4-isopropyl-benzylamide]	100 to 1000	100 to 1000
CCCc1ccc(CNC(=O)[C@H]2CN(C(=O)Nc3nc(CC(=O)OCC)cs3)CCN2S(=O)(=O)c2ccc(OC(F)(F)F)cc2)cc1 [Example 470, (2-{[(R)-3-(4-propyl-benzylcarbamoyl)-4-(4-trifluoromethoxy-benzenesulfonyl)-piperazine-1-carbonyl]-amino}-thiazol-4-yl)-acetic acid ethyl ester]	100 to 1000	100 to 1000
CC(C)c1ccc(CNC(=O)[C@H]2CN(c3cnc(N)cn3)CCN2S(=O)(=O)c2ccc(C(F)(F)F)cc2)cc1 [Example 471, (R)-5′-amino-4-(4-trifluoromethyl-benzenesulfonyl)-3,4,5,6-tetrahydro-2H-[1,2′]bipyrazinyl-3-carboxylic acid 4-isopropyl-benzylamide]	100 to 1000	< 100
CCCc1ccc(CNC(=O)[C@H]2CN(c3cnccn3)CCN2S(=O)(=O)c2ccc(OC(F)(F)F)cc2)cc1 [Example 472, (R)-4-(4-trifluoromethoxy-benzenesulfonyl)-3,4,5,6-tetrahydro-2H-[1,2′]bipyrazinyl-3-carboxylic acid 4-propyl-benzylamide]	< 100	< 100
COCc1ccc(CNC(=O)[C@H]2CN(c3cnc(C(=O)O)cn3)CCN2S(=O)(=O)c2ccc(OC(F)(F)F)cc2)cc1 [Example 473, (R)-3-(4-methoxymethyl-benzylcarbamoyl)-4-(4-trifluoromethoxy-benzenesulfonyl)-3,4,5,6-tetrahydro-2H-[1,2′]bipyrazinyl-5′-carboxylic acid]	< 100	< 100
CCCc1ccc(CNC(=O)[C@H]2CN(c3cnc(C(=O)O)cn3)CCN2S(=O)(=O)c2ccc(OC(F)(F)F)cc2)c(Cl)c1 [Example 474, (R)-3-(2-chloro-4-propyl-benzylcarbamoyl)-4-(4-trifluoromethoxy-benzenesulfonyl)-3,4,5,6-tetrahydro-2H-[1,2′]bipyrazinyl-5′-carboxylic acid]	< 100	< 100
CCCc1ccc(CNC(=O)[C@H]2CN(C(=O)Nc3nc(CC(=O)N4CCOCC4)cs3)CCN2S(=O)(=O)c2ccc(OC(F)(F)F)cc2)cc1 [Example 475, (R)-4-(4-trifluoromethoxy-benzenesulfonyl)-piperazine-1,3-dicarboxylic acid 1-{[4-(2-morpholin-4-yl-2-oxo-ethyl)-thiazol-2-yl]-amide} 3-(4-propyl-benzylamide)]	100 to 1000	< 100
CCCc1ccc(CNC(=O)[C@H]2CN(C(=O)Nc3nc(CCO)cs3)CCN2S(=O)(=O)c2ccc(OC(F)(F)F)cc2)cc1 [Example 476, (R)-4-(4-trifluoromethoxy-benzenesulfonyl)-piperazine-1,3-dicarboxylic acid 1-{[4-(2-hydroxy-ethyl)-thiazol-2-yl]-amide} 3-(4-propyl-benzylamide)]	100 to 1000	100 to 1000
CCOC(=O)c1nnc(NC(=O)N2CCN(S(=O)(=O)c3ccc(OC(F)(F)F)cc3)[C@@H](C(=O)NCc3ccc(C(F)(F)CC)cc3)C2)s1 [Example 477, 5-{[(R)-3-[4-(1,1-difluoro-propyl)-benzylcarbamoyl]-4-(4-trifluoromethoxy-benzenesulfonyl)-piperazine-1-carbonyl]-amino}-[1,3,4]thiadiazole-2-carboxylic acid ethyl ester]	> 1000	> 1000
CCCc1ccc(CNC(=O)[C@H]2CN(c3cnc(CO)cn3)CCN2S(=O)(=O)c2ccc(CC)cc2)cc1 [Example 478, (R)-4-(4-ethyl-benzenesulfonyl)-5′-hydroxymethyl-3,4,5,6-tetrahydro-2H-[1,2′]bipyrazinyl-3-carboxylic acid 4-propyl-benzylamide]	< 100	< 100
CCC(F)(F)c1ccc(CNC(=O)[C@H]2CN(C(=O)Cn3nnc(-c4ccccc4)n3)CCN2S(=O)(=O)c2ccc(OC(F)(F)F)cc2)cc1 [Example 479, (R)-4-[2-(5-phenyl-tetrazol-2-yl)-acetyl]-1-(4-trifluoromethoxy-benzenesulfonyl)-piperazine-2-carboxylic acid 4-(1,1-difluoro-propyl)-benzylamide]	< 100	< 100
CCC(F)(F)c1ccc(CNC(=O)[C@H]2CN(C(=O)Cc3cc(C)no3)CCN2S(=O)(=O)c2ccc(OC(F)(F)F)cc2)cc1 [Example 480, (R)-4-[2-(3-methyl-isoxazol-5-yl)-acetyl]-1-(4-trifluoromethoxy-benzenesulfonyl)-piperazine-2-carboxylic acid 4-(1,1-difluoro-propyl)-benzylamide]	< 100	< 100
CC(=O)N1CCN(S(=O)(=O)c2ccc(C(C)C)cc2)[C@@H](C(=O)NCc2ccc(-c3ccoc3)cc2)C1 [Example 481, (R)-4-acetyl-1-(4-isopropyl-benzenesulfonyl)-piperazine-2-carboxylic acid 4-furan-3-yl-benzylamide]	100 to 1000	100 to 1000
CCC(F)(F)c1ccc(CNC(=O)[C@H]2CN(C(=O)Nc3nnc(CO)s3)CCN2S(=O)(=O)c2ccc(OC(F)(F)F)cc2)cc1 [Example 482, (R)-4-(4-trifluoromethoxy-benzenesulfonyl)-piperazine-1,3-dicarboxylic acid 3-[4-(1,1-difluoro-propyl)-benzylamide] 1-[(5-hydroxymethyl-[1,3,4]thiadiazol-2-yl)-amide]]	100 to 1000	< 100
CCC(F)(F)c1ccc(CNC(=O)[C@H]2CN(C(=O)Nc3nnc(C(C)=O)s3)CCN2S(=O)(=O)c2ccc(OC(F)(F)F)cc2)cc1 [Example 483, (R)-4-(4-trifluoromethoxy-benzenesulfonyl)-piperazine-1,3-dicarboxylic acid 1-[(5-acetyl-[1,3,4]thiadiazol-2-yl)-amide] 3-[4-(1,1-difluoro-propyl)-benzylamide]]	> 1000	> 1000

— patent US8017612B2, “Piperazine compound and use thereof as a HCV polymerase inhibitor” (priority 2006, dated 2011)
